PMC4730229, “Benzobisthiazoles Represent a Novel Scaffold for Kinase Inhibitors of CLK Family Members” (Biochemistry, 2015)

Key:
Assay in all cases: Kinase profiling (radioactive filter binding)
Type in all cases: biochemical
Conditions in all cases: 1 uM compound
Lck = Lck (Homo sapiens, UniProt P06239)
Protocol: (§1) 3A5 and 5E4 were sent to the International Centre for Kinase Profiling at the MRC Protein Phosphorylation and Ubiquitylation Unit for profiling (as described in ref ([17])). Compounds were profiled against 140 kinases using a radioactive ([^33P]ATP) filter binding assay at a concentration of 1 μM. Results were obtained as inhibition of kinase activity and are listed in Supplementary Table 2.

NEK6 = NEK6 (Homo sapiens, UniProt Q9HC98)
Protocol: as §1

p38a MAPK = p38a MAPK (Homo sapiens, UniProt Q16539)
Protocol: as §1

OSR1 = OSR1 (Homo sapiens, UniProt O95747)
Protocol: as §1

TBK1 = TBK1 (Homo sapiens, UniProt Q9UHD2)
Protocol: as §1

RIPK2 = RIPK2 (Homo sapiens, UniProt O43353)
Protocol: as §1

EF2K = EF2K (Homo sapiens, UniProt O00418)
Protocol: as §1

IGF-1R = IGF-1R (Homo sapiens, UniProt P08069)
Protocol: as §1

MARK2 = MARK2 (Homo sapiens, UniProt Q7KZI7)
Protocol: as §1

DAPK1 = DAPK1 (Homo sapiens, UniProt P53355)
Protocol: as §1

CHK1 = CHK1 (Homo sapiens, UniProt O14757)
Protocol: as §1

CK1δ = CK1δ (Homo sapiens, UniProt P48730)
Protocol: as §1

CK1γ2 = CK1γ2 (Homo sapiens, UniProt P78368)
Protocol: as §1

MEKK1 = MEKK1 (Homo sapiens, UniProt Q13233)
Protocol: as §1

CDK9-Cyclin T1 = CDK9-Cyclin T1 (Homo sapiens, UniProt P50750)
Protocol: as §1

GCK = GCK (Homo sapiens, UniProt Q12851)
Protocol: as §1

Aurora A = Aurora A (Homo sapiens, UniProt O14965)
Protocol: as §1

p38d MAPK = p38d MAPK (Homo sapiens, UniProt O15264)
Protocol: as §1

TTK = TTK (Homo sapiens, UniProt P33981)
Protocol: as §1

ZAP70 = ZAP70 (Homo sapiens, UniProt P43403)
Protocol: as §1

MSK1 = MSK1 (Homo sapiens, UniProt O75582)
Protocol: as §1

S6K1 = S6K1 (Homo sapiens, UniProt P23443)
Protocol: as §1

ERK1 = ERK1 (Homo sapiens, UniProt P27361)
Protocol: as §1

ROCK 2 = ROCK 2 (Rattus norvegicus, UniProt Q62868)
Protocol: as §1

EIF2AK3 = EIF2AK3 (Homo sapiens, UniProt Q9NZJ5)
Protocol: as §1

TAK1 = TAK1 (Homo sapiens, UniProt O43318)
Protocol: as §1

RSK2 = RSK2 (Homo sapiens, UniProt P51812)
Protocol: as §1

DYRK3 = DYRK3 (Homo sapiens, UniProt O43781)
Protocol: as §1

PINK = PINK (Tribolium castaneum, UniProt D6WMX4)
Protocol: as §1

MST2 = MST2 (Homo sapiens, UniProt Q13188)
Protocol: as §1

BRSK2 = BRSK2 (Homo sapiens, UniProt Q8IWQ3)
Protocol: as §1

IRR = IRR (Homo sapiens, UniProt P14616)
Protocol: as §1

PDK1 = PDK1 (Homo sapiens, UniProt O15530)
Protocol: as §1

PIM1 = PIM1 (Homo sapiens, UniProt P11309)
Protocol: as §1

MLK1 = MLK1 (Homo sapiens, UniProt P80192)
Protocol: as §1

p38b MAPK = p38b MAPK (Homo sapiens, UniProt Q15759)
Protocol: as §1

TSSK1 = TSSK1 (Homo sapiens, UniProt Q9BXA7)
Protocol: as §1

CHK2 = CHK2 (Homo sapiens, UniProt O96017)
Protocol: as §1

JNK2 = JNK2 (Homo sapiens, UniProt P45984)
Protocol: as §1

TGFBR1 = TGFBR1 (Homo sapiens, UniProt P36897)
Protocol: as §1

MLK3 = MLK3 (Homo sapiens, UniProt Q16584)
Protocol: as §1

CAMK1 = CAMK1 (Homo sapiens, UniProt Q14012)
Protocol: as §1

Chain of CHK1 (O14757 whole entry): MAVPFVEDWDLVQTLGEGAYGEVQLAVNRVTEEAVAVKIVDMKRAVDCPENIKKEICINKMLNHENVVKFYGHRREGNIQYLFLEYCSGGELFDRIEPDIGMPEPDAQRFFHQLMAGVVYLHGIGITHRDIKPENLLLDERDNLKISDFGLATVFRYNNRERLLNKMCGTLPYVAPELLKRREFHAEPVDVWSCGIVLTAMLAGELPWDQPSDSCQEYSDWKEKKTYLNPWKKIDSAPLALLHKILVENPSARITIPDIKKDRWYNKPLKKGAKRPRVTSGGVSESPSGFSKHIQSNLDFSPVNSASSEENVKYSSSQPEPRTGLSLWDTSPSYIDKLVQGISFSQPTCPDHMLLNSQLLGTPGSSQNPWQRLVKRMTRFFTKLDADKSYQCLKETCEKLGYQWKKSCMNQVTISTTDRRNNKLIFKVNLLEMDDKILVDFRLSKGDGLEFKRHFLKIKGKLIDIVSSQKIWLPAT
Chain of p38b MAPK (Q15759 whole entry): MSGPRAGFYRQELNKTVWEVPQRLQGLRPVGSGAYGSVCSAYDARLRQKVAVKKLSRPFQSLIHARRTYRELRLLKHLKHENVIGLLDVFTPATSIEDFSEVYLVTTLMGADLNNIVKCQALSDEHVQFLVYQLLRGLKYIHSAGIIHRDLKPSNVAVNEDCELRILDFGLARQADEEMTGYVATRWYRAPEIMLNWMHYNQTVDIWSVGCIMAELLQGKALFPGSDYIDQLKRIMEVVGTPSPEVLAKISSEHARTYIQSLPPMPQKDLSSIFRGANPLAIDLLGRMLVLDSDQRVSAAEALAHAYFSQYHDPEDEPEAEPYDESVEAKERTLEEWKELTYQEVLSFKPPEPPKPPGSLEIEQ
Chain of TSSK1 (Q9BXA7 whole entry): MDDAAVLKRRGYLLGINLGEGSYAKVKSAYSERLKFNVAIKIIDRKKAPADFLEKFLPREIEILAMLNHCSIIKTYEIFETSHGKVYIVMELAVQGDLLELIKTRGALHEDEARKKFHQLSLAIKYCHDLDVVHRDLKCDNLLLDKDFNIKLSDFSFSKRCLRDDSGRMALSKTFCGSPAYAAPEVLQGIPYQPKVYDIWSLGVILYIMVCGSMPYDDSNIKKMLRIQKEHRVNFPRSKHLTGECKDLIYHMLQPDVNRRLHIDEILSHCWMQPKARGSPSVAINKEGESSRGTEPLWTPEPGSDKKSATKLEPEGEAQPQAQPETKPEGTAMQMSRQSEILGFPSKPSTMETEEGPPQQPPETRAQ
Chain of MSK1 (O75582 whole entry): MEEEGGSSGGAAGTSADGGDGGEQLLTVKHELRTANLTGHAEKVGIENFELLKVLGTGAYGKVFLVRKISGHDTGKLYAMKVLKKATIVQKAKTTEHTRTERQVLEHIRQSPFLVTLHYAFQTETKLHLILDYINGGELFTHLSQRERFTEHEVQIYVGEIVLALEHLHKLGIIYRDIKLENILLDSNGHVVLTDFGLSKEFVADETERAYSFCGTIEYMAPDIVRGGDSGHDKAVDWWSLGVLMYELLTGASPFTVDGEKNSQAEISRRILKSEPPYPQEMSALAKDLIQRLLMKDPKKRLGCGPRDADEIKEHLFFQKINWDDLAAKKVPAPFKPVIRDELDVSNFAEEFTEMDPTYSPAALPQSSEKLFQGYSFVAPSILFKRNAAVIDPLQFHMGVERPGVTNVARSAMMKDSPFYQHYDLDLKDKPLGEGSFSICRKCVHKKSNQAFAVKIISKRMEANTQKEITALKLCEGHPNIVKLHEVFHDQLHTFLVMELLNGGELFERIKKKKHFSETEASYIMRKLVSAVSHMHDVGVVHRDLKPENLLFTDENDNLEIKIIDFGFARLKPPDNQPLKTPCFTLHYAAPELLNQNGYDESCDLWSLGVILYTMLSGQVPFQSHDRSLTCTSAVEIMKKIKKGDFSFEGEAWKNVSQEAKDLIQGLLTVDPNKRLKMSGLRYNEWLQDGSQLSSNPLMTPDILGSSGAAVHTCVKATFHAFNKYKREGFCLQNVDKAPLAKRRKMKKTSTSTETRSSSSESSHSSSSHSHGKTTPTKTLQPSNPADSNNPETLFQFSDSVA
Chain of TBK1 (Q9UHD2 whole entry): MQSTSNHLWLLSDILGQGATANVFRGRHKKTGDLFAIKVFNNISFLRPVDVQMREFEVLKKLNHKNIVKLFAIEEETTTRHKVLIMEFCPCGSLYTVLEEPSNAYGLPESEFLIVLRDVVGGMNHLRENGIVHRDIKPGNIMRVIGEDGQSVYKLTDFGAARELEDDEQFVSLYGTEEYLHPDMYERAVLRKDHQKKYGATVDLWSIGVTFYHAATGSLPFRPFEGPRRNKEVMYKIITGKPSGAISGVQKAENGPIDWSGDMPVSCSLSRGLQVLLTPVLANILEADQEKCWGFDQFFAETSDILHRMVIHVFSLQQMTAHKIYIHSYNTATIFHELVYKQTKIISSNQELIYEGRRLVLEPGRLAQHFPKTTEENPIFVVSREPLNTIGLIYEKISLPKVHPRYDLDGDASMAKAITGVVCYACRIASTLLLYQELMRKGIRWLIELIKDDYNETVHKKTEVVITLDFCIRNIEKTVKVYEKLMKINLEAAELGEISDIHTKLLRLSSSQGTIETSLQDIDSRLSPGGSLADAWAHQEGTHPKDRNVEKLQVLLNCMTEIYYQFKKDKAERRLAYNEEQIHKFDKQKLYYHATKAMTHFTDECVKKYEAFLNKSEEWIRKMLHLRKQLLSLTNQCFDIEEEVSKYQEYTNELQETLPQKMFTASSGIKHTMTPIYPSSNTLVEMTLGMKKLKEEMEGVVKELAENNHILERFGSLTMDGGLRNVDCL
Chain of CDK9-Cyclin T1 (P50750 whole entry): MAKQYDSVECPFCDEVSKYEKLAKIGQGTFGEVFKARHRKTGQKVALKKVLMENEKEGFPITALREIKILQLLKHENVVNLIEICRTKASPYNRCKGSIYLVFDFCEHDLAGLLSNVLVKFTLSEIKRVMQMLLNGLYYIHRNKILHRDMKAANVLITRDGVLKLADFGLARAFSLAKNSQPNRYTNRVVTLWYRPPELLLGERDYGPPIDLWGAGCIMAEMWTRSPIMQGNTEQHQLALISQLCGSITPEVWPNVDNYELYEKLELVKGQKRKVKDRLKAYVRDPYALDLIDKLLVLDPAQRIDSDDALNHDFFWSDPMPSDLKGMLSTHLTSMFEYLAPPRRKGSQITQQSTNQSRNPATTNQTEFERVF
Chain of CDK9-Cyclin T1 (O60563 whole entry partner): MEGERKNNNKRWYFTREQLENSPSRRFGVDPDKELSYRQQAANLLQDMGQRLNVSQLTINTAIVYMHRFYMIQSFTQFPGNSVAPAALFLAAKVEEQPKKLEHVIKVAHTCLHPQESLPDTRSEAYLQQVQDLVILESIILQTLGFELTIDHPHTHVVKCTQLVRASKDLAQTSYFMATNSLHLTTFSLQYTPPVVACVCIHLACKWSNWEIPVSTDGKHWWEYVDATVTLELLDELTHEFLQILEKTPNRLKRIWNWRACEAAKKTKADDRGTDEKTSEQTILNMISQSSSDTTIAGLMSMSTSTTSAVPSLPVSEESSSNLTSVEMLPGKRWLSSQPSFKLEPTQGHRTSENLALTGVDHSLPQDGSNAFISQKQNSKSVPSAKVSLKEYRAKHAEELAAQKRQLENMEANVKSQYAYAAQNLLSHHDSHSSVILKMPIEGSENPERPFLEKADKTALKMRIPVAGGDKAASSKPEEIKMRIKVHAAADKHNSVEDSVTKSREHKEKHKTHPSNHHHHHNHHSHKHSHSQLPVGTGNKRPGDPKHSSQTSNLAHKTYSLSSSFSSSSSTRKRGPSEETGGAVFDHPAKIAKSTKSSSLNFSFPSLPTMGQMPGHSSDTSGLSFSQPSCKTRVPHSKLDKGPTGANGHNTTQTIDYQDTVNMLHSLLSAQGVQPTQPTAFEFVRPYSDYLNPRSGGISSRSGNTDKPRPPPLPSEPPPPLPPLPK
Chain of TTK (P33981 whole entry): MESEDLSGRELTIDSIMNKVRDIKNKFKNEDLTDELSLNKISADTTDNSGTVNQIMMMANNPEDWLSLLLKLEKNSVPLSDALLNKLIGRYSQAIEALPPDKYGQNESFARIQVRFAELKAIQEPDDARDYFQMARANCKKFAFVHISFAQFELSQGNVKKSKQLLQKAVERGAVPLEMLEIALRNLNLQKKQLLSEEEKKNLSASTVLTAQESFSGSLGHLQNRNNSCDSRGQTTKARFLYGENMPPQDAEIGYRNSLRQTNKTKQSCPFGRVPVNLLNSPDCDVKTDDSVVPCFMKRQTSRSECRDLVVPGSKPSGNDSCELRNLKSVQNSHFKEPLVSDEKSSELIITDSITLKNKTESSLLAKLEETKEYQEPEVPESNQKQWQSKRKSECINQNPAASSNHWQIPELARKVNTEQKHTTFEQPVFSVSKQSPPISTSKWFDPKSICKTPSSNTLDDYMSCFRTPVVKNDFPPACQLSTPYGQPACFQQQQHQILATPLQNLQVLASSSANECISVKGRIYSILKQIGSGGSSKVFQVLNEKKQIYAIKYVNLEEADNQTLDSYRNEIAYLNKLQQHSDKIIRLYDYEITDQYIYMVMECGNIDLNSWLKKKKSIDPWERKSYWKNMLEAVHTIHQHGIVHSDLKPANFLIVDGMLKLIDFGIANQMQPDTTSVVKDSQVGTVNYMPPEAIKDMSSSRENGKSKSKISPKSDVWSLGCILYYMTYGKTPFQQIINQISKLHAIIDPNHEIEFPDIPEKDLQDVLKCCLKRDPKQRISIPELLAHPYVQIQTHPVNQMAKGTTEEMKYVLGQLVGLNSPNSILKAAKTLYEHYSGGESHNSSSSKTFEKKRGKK
Chain of TAK1 (O43318 1-303 limits assumed): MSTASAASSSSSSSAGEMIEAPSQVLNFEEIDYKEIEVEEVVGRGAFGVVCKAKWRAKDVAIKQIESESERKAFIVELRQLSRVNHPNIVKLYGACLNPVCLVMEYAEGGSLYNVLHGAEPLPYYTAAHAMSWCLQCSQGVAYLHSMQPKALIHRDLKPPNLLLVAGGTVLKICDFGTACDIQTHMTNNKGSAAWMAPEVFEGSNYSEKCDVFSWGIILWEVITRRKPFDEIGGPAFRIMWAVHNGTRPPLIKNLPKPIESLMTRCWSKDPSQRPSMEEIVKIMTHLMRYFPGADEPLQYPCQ

## Cc1nc2ccc3sc(NC(=O)c4ccc5ncsc5c4)nc3c2s1 [3A5, N-(2-methyl[1,3]thiazolo[5,4-e][1,3]benzothiazol-7-yl)-1,3-benzothiazole-6-carboxamide]
Lck
  Lck activity in kinase profiling: 116
NEK6
  NEK6 activity in kinase profiling: 104
p38a MAPK
  p38a MAPK activity in kinase profiling: 94
OSR1
  OSR1 activity in kinase profiling: 101
TBK1
  TBK1 activity in kinase profiling: 83
RIPK2
  RIPK2 activity in kinase profiling: 83
EF2K
  EF2K activity in kinase profiling: 71
IGF-1R
  IGF-1R activity in kinase profiling: 123
MARK2
  MARK2 activity in kinase profiling: 87
DAPK1
  DAPK1 activity in kinase profiling: 73
CHK1
  CHK1 activity in kinase profiling: 120
CK1δ
  CK1δ activity in kinase profiling: 34
CK1γ2
  CK1γ2 activity in kinase profiling: 22
MEKK1
  MEKK1 activity in kinase profiling: 79
CDK9-Cyclin T1
  CDK9-Cyclin T1 activity in kinase profiling: 87
GCK
  GCK activity in kinase profiling: 90
Aurora A
  Aurora A activity in kinase profiling: 127
p38d MAPK
  p38d MAPK activity in kinase profiling: 105
TTK
  TTK activity in kinase profiling: 56
ZAP70
  ZAP70 activity in kinase profiling: 109
MSK1
  MSK1 activity in kinase profiling: 86
S6K1
  S6K1 activity in kinase profiling: 72
ERK1
  ERK1 activity in kinase profiling: 102
ROCK 2
  ROCK 2 activity in kinase profiling: 68
EIF2AK3
  EIF2AK3 activity in kinase profiling: 119
TAK1
  TAK1 activity in kinase profiling: 87
RSK2
  RSK2 activity in kinase profiling: 120
DYRK3
  DYRK3 activity in kinase profiling: 72
PINK
  PINK activity in kinase profiling: 115
MST2
  MST2 activity in kinase profiling: 119
BRSK2
  BRSK2 activity in kinase profiling: 88
IRR
  IRR activity in kinase profiling: 87
PDK1
  PDK1 activity in kinase profiling: 93
PIM1
  PIM1 activity in kinase profiling: 71
MLK1
  MLK1 activity in kinase profiling: 73
p38b MAPK
  p38b MAPK activity in kinase profiling: 100
TSSK1
  TSSK1 activity in kinase profiling: 81
CHK2
  CHK2 activity in kinase profiling: 77
JNK2
  JNK2 activity in kinase profiling: 100
TGFBR1
  TGFBR1 activity in kinase profiling: 93
MLK3
  MLK3 activity in kinase profiling: 49
CAMK1
  CAMK1 activity in kinase profiling: 85

## CSc1nc2ccc3nc(NC(=O)c4ccco4)sc3c2s1 [5E4, N-[7-(methylsulfanyl)[1,3]thiazolo[4,5-g][1,3]benzothiazol-2-yl]-2-furamide]
Lck
  Lck activity in kinase profiling: 101
NEK6
  NEK6 activity in kinase profiling: 91
p38a MAPK
  p38a MAPK activity in kinase profiling: 96
OSR1
  OSR1 activity in kinase profiling: 111
TBK1
  TBK1 activity in kinase profiling: 83
RIPK2
  RIPK2 activity in kinase profiling: 34
EF2K
  EF2K activity in kinase profiling: 79
IGF-1R
  IGF-1R activity in kinase profiling: 117
MARK2
  MARK2 activity in kinase profiling: 90
DAPK1
  DAPK1 activity in kinase profiling: 76
CHK1
  CHK1 activity in kinase profiling: 111
CK1δ
  CK1δ activity in kinase profiling: 94
CK1γ2
  CK1γ2 activity in kinase profiling: 88
MEKK1
  MEKK1 activity in kinase profiling: 108
CDK9-Cyclin T1
  CDK9-Cyclin T1 activity in kinase profiling: 88
GCK
  GCK activity in kinase profiling: 24
Aurora A
  Aurora A activity in kinase profiling: 107
p38d MAPK
  p38d MAPK activity in kinase profiling: 103
TTK
  TTK activity in kinase profiling: 60
ZAP70
  ZAP70 activity in kinase profiling: 93
MSK1
  MSK1 activity in kinase profiling: 109
S6K1
  S6K1 activity in kinase profiling: 80
ERK1
  ERK1 activity in kinase profiling: 104
ROCK 2
  ROCK 2 activity in kinase profiling: 96
EIF2AK3
  EIF2AK3 activity in kinase profiling: 84
TAK1
  TAK1 activity in kinase profiling: 67
RSK2
  RSK2 activity in kinase profiling: 100
DYRK3
  DYRK3 activity in kinase profiling: 30
PINK
  PINK activity in kinase profiling: 118
MST2
  MST2 activity in kinase profiling: 129
BRSK2
  BRSK2 activity in kinase profiling: 83
IRR
  IRR activity in kinase profiling: 92
PDK1
  PDK1 activity in kinase profiling: 88
PIM1
  PIM1 activity in kinase profiling: 96
MLK1
  MLK1 activity in kinase profiling: 25
p38b MAPK
  p38b MAPK activity in kinase profiling: 98
TSSK1
  TSSK1 activity in kinase profiling: 81
CHK2
  CHK2 activity in kinase profiling: 88
JNK2
  JNK2 activity in kinase profiling: 107
TGFBR1
  TGFBR1 activity in kinase profiling: 94
MLK3
  MLK3 activity in kinase profiling: 18
CAMK1
  CAMK1 activity in kinase profiling: 106
